# Molecular target: T1, Cav2.2-CRMP2 interaction (Mus musculus, UniProt O55017)
# T1 construct: a mouse neuronal cell line expressing both CRMP2 and Cav2.2; endogenous in cells; host or cells: mouse CAD cells (ECACC Cat #08100805)
# Experiment: CRMP2 immunoprecipitation to detect Cav2.2 in CAD cells
# Assay type: cell-based
# Description: Mouse neuron derived Cathecholamine A differentiated CAD cells (ECACC Cat #08100805, RRID: CVCL_0199) were grown in standard cell culture conditions, 37° C. in 5% (vol/vol) CO2. The cells were maintained in DMEM/F12 media supplemented with 10% (vol/vol) FBS (HyClone) and 1% penicillin/streptomycin sulfate from 10,000 μg/mL stock.
# CAD cells were incubated overnight with a vehicle (0.1% DMSO) or CBD3063 (20 μM). The next day the cells were lysed into the IP buffer containing 20 mM Tris-HCl pH=7.4, 50 mM NaCl, 2 mM MgCl2, 10 mM N-Ethylmaleimide (NEM), 1% (vol/vol) NP-40, 0.5% (mass/vol) sodium deoxycholate, 0.1% (mass/vol) sodium dodecyl sulfate (SDS) with protease inhibitors (Cat #B14002, Biotool, Houston, TX), phosphatase inhibitors (Cat #B15002, Biotool, Houston, TX) and Nuclease (Cat #88701, Thermo Fisher Scientific, Waltham, MA). Total protein concentration was determined by BCA protein assay kit (Cat #PI23225, Thermo Fisher Scientific, Waltham, MA). Five hundred micrograms of total protein were incubated overnight with 2 μg of CRMP2 antibody (Cat #C2993, Sigma-Aldrich, St. Louis, MO) at 4° C. under gentle agitation. Protein G magnetic beads (Cat #10004D, Thermo Fisher Scientific, Waltham, MA), pre-equilibrated with the immunoprecipitation buffer, were then added to the lysates and incubated for 2 hours at 4° C. to capture immuno-complexes. […]
# T1 sequence (O55017 whole entry): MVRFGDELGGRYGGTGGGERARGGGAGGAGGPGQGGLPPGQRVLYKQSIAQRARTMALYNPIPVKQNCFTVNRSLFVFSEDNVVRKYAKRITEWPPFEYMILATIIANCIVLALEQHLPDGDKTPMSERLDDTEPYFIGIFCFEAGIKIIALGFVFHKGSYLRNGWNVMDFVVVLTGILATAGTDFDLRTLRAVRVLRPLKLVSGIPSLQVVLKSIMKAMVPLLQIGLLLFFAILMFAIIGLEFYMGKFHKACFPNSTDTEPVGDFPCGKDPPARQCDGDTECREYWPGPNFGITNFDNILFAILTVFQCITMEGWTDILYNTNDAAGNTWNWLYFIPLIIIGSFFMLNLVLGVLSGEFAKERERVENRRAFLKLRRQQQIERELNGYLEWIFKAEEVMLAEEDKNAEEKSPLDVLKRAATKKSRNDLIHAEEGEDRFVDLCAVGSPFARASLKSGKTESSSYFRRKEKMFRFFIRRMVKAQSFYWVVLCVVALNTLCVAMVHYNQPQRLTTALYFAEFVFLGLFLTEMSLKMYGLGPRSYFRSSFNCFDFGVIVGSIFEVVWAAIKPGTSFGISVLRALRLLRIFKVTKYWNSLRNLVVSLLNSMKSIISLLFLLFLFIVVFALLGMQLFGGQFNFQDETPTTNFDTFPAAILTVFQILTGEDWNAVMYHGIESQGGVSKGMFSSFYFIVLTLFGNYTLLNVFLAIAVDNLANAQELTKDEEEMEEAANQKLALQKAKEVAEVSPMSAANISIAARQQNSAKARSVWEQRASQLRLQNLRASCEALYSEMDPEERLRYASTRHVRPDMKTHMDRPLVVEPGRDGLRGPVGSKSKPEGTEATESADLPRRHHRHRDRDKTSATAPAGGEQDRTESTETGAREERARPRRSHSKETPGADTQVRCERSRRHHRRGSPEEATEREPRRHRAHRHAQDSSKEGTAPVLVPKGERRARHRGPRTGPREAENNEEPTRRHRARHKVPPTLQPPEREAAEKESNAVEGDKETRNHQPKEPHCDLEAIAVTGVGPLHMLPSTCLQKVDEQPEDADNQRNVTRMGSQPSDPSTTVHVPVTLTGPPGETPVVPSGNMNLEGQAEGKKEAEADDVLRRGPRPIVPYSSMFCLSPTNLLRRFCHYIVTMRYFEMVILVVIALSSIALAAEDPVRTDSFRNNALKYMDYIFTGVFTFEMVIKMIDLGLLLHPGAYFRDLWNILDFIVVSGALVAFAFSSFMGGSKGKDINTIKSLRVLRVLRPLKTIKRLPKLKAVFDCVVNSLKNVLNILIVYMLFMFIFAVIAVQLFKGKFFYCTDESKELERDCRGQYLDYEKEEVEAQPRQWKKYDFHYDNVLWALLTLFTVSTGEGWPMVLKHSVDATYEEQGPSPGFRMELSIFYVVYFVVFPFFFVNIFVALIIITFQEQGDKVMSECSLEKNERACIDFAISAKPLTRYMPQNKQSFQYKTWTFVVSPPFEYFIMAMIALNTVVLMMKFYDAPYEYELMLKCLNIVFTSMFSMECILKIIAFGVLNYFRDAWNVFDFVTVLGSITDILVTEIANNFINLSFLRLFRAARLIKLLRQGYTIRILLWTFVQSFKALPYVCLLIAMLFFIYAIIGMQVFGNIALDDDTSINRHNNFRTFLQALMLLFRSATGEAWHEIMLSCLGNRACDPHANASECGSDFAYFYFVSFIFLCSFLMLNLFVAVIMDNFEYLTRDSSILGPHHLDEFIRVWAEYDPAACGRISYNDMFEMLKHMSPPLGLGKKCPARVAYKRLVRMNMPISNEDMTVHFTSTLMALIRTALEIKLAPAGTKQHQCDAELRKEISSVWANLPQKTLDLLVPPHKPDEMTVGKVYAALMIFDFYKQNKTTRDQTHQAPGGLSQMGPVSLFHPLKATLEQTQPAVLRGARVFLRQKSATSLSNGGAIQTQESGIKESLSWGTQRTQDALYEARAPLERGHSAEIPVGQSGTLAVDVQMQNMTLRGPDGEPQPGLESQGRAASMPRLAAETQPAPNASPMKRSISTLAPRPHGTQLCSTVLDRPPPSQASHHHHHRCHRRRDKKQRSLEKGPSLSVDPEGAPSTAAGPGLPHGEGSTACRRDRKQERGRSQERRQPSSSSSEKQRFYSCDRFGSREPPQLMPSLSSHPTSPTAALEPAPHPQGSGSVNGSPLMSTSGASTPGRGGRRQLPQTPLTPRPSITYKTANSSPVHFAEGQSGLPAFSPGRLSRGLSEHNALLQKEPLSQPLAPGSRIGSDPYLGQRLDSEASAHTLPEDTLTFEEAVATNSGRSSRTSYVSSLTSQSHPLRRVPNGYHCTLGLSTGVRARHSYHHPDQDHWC
smiles,measurement,setting,value
"CC(=O)N[C@@H]1CCCN(C(=O)NCCCNc2ccccn2)C1 [CBD3063, (3R)-3-acetamido-N-[3-(pyridin-2-ylamino)propyl]piperidine-1-carboxamide]",relative Cav2.2 binding to CRMP2,20 μM overnight (DMSO: 1.00±0.05),0.64±0.02
same,reduction in the level of Cav2.2 protein immunoprecipitated by CRMP2,"20 μM overnight, versus control",~35%
